# Source: the METLIN SMRT retention time set (Domingo-Almenara et al. 2019)
# Experiment: gradient 5% acetonitrile 3 min, to 50% in 2 min, to 85% in 15 min, held 3 min, 100 µL/min
# Settings: column: Zorbax Extend-C18 2.1 x 50 mm; eluents: water / acetonitrile, 0.1% formic acid
# Summary of the method: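 Retention time was recorded from adduct peaks, which were picked computationally and each inspected manually. Pure standards ran in mixtures of ~100 molecules on HPLC coupled to a quadrupole time-of-flight mass spectrometer, in positive and negative ionization mode, through a Zorbax Extend-C18 column (2.1 × 50 mm, 1.8 μm) at 100 μL/min. Eluents were water and acetonitrile, each with 0.1% formic acid.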
row,Compound,RP-LC retention time [s]
1,Cc1cc(N2CCN(c3ccccn3)CC2)n2nc(C(F)(F)F)c(-c3ccc(Cl)cc3)c2n1,1010
2,Cc1cccc(Oc2cc(N3CCC(C(=O)Nc4cccc(C(C)C)c4)CC3)ncn2)c1C,1200
3,CCn1cc(-c2nc(CC(=O)Nc3cccc(Cl)c3)cs2)c2cccnc21,942
4,COc1ccc(-c2noc(Cn3ccn(-c4cc(C)cc(C)c4)c(=O)c3=O)n2)cc1,870
5,CCOC(=O)CNC(=O)N1CCCN(c2nc3cc(Br)ccc3n3cccc23)CC1,671
6,CC1=C(c2ccc(C(C)C)cc2)S(=O)(=O)N=C1N1CCC(C(=O)NCC2CCCO2)CC1 (stereo unspecified),820
7,O=C(NCc1ccccc1)Nc1c(-c2ccccc2)nc2ccccn12,626
8,COC(=O)c1c(C)[nH]c(C(=O)N2CCC(CC(=O)NCc3cccc(OC)c3)CC2)c1C,715
9,COc1cc(N)c(Cl)cc1C(=O)OCCCN1CCCCC1,655
10,COC(=O)c1ccc(C(=O)NCCN2CCN(C(=O)OC(C)(C)C)CC2)cc1,580
11,O=C(Nc1cccc(N2CC(C(=O)Nc3ccc(C(F)(F)F)cc3)CC2=O)c1)C1CCC1 (stereo unspecified),880
12,Clc1ccc(OCc2nn3c(-c4ccccn4)nnc3s2)cc1,832
13,Cc1cc2nn(CC(=O)NCc3ccccc3)c(=O)n2c(Nc2ccc(C)c(C)c2)n1,1060
14,Cc1c(Cl)cccc1NC(=O)N1CCC(c2cc(N)on2)CC1,736
15,O=C(NC1CC1)c1nc2ccccn2c1-c1ccc(F)cc1,709
16,CNC(=O)[C@@H]1CN(S(=O)(=O)c2cnc[nH]2)C[C@H]1c1nc(C)no1,568
17,CCc1nc(-c2csc(S(=O)(=O)N3CCCC(C(=O)Nc4ccccc4)C3)c2)no1 (stereo unspecified),1030
18,O=C(c1cnccn1)N1CCC(Oc2nc3ccccc3s2)CC1,755
19,CCCC(=O)Nc1nc(-c2ccc3c(c2)N(CC)C(=O)CO3)cs1,853
20,Cc1noc(C2CN(C(=O)Nc3ccc(C)c(C)c3)CC23CCOCC3)n1 (stereo unspecified),768
21,O=c1ccc(S(=O)(=O)N2CCOCC2)cn1Cc1cccc(Cl)c1,809
22,Cc1nn(CC(=O)N2CCCC2)c(=O)c2c(-n3cccc3)n(-c3cccc(F)c3)nc12,876
23,COc1ccc(NC(=O)Cn2c(N3CCCC3)nc(C)cc2=O)cc1OC,601

row,Compound,RP-LC retention time [s]
1,Cc1ccc(NC(=O)N2C[C@@H](F)C[C@H]2C(=O)N2CCc3ccccc3C2)cc1,807
2,O=C(c1ccc(Cl)cc1)N1CCN(c2nc(CN3CCOCC3)cs2)CC1,638
3,COCCN1C(=O)c2ccccc2C(C(=O)N2CCN(c3ccccn3)CC2)C1c1cccs1 (stereo unspecified),621
4,CC(C)c1ccc(S(=O)(=O)N2CCC(c3ccncc3)CC2)cc1,749
5,Cc1cc(F)ccc1NS(=O)(=O)c1cc(-c2[nH]ncc2C(=O)N2CCOCC2)oc1C,678
6,COc1cc([N+](=O)[O-])ccc1NC(=O)c1cccc(Br)c1,1030
7,CC(C)Cn1c(=O)c(N2CCN(C(=O)c3ccc(Cl)cc3)CC2)nc2ccncc21,689
8,COc1cc(NC(=O)N2CCC(n3c(CC(C)C)nc4cccnc43)CC2)cc(OC)c1OC,662
9,COc1nn(C)cc1C(=O)NCC(=O)NC1CCSC1=O (stereo unspecified),559
10,Cc1ccc(CNC(=O)c2ccc3ncnc(N4CCCC4)c3c2)cc1C,684
11,O=C(CSc1cccc2cccnc12)NCCc1ccc(Cl)cc1,786
12,CN(c1nc(-c2ccc(C(C)(C)C)cc2)nc2ccccc12)C1CCCCC1,1130
13,COc1ccc(OCc2nnc3sc(-c4ccc(OC)cc4OC)nn23)cc1,989
14,Cc1cc(N2CCOCC2)n2nc(CN3CCN(c4ccccc4)CC3)nc2n1,588
15,COc1ccc2sc(NCc3cccnc3)nc2c1,556
16,O=C(c1ccc[nH]1)N1CCC2(CC1)N=C(c1ccc(Cl)cc1)NO2,776
17,CCOC(=O)c1sc(NC(=O)C(C)Oc2ccc(OC)cc2)nc1C (stereo unspecified),996
18,CC1CCN(c2cc(-c3nccn3CC(=O)NC3CCCCC3)ccn2)CC1,675
19,COCC1CCN(C(=O)NCc2cccc3ccccc23)CC1,769
20,COc1ccc(C)cc1NC(=O)C(=O)NCCN1CCN(c2ccccc2F)CC1,614
21,CNC(=O)C1CCCN(c2nc3ncn(CC(=O)Nc4cc(F)cc(F)c4)c(=O)c3s2)C1 (stereo unspecified),681
22,CCn1cc(C(=O)Nc2cccc(Cl)c2)c2cccnc21,938
23,CCCN(C(=O)c1ccc(Br)cc1)C1(C(=O)NCc2ccccc2)CCN(C(C)=O)CC1,626

row,Compound,RP-LC retention time [s]
1,COc1ccc2[nH]c3c(c2c1)CCNC3c1ccc(F)cc1 (stereo unspecified),623
2,O=C1c2ccccc2C(=O)c2[nH]cnc21,661
3,O=S(=O)(c1cccc(C(F)(F)F)c1)N1CCN(c2cnn3cnnc3c2)CC1,668
4,CN1C(=O)c2cccn2CC1C(=O)NCc1ccco1 (stereo unspecified),613
5,Cc1nn(-c2ccc(F)cc2)c(C)c1S(=O)(=O)N1CCN(c2ccccn2)CC1,683
6,O=C(C1CC1)N1CCc2ccc(NS(=O)(=O)C3CCCCC3)cc21,830
7,CCn1cnc2ccc(-c3noc(COc4cccc(C)c4)n3)cc21,808
8,COc1cccc(C(O)CN2CCN(c3ccccc3F)CC2)c1 (stereo unspecified),654
9,Cc1nn(-c2nc(CC(=O)N3CCOCC3)cs2)c(C)c1Cl,842
10,CCCCN(CCCNC(=O)C1CCN(S(=O)(=O)CCC)CC1)Cc1ccccc1,672
11,CCC1Oc2ccc(S(=O)(=O)N3CCC(C(=O)Nc4ccc(C)c(F)c4)CC3)cc2NC1=O (stereo unspecified),892
12,Cc1sc(-c2noc(C(C)C)n2)cc1S(=O)(=O)N1CCC(C(=O)N2CCOCC2)CC1,909
13,Cc1ccc(OCC(=O)NCC2(C)CCOCC2)cc1,784
14,COc1ccc(-c2cn3cccnc3n2)cc1NC(=O)c1ccc(F)c(F)c1,718
15,Cc1ccc(CNC(=O)C2(C)Cn3nc(C(=O)NCc4ccccc4C)cc3C(=O)N2C)cc1 (stereo unspecified),823
16,Cn1nc(C(=O)N2CC(n3cc(C(=O)NCC4CC4)nn3)C2)c2ccccc21,734
17,Cc1cc(-c2nnc(NC(=O)CS(=O)(=O)c3ccc(Cl)cc3)o2)nn1C,677
18,COCCOCC1CCN(C(=O)CNC(=O)c2ccccc2)CC1,620
19,O=C1NC(C(=O)Nc2ccc3c(c2)OCCO3)Cn2cccc21 (stereo unspecified),643
20,Cn1c(=O)c2cc(C(=O)NCc3cc(F)ccc3F)nn2c2ccccc21,869
21,O=C(COc1ccc(Cl)cc1)NCC1CCOCC1,764
22,Cc1ccc(N2CC(NC(=O)Nc3ncccc3C)CC2=O)cc1 (stereo unspecified),573
23,CCc1nc(C2CN(CCc3ccccc3)CC23CCCC3)no1 (stereo unspecified),670

row,Compound,RP-LC retention time [s]
1,CC1CCN(C(=O)c2nnc(-c3ccc(S(=O)(=O)N4CCCC4)cc3)o2)CC1,952
2,O=C(Nc1cnc(N2CCCCCC2)nc1)C1CC1,714
3,NC(=O)CS(=O)C(c1ccccc1)c1ccccc1 (stereo unspecified),710
4,Cc1ccc(Nc2c(-c3cc(Br)ccc3O)nc3ncccn23)cc1Cl,1170
5,COc1ccc(F)cc1S(=O)(=O)N1CCC(F)(c2nc(CC(C)C)no2)CC1,1120
6,Cc1nc(C)c(C(=O)Nc2ccc(F)cc2Cl)s1,820
7,CCCN1C(=O)c2c(C(=O)NCc3ccccc3F)ncn2CC1(C)C(=O)NC1CCCC1 (stereo unspecified),787
8,CCN(C(=O)Cn1nc(C(=O)N2CCCCC2)c2ccccc21)c1cccc(C)c1,1010
9,CC(C)N1C(=O)c2cccnc2Sc2cc(NC(=O)Cc3cccs3)ccc21,834
10,CC(Cc1cccs1)NS(=O)(=O)c1ccc2c(c1)OCCO2 (stereo unspecified),840
11,Cc1ccc2cc(CCC(=O)NCCc3ccncc3)c(=O)[nH]c2c1,589
12,COc1ccc(-c2nnc(-c3cc(S(=O)(=O)N4CCCC4)ccc3Cl)o2)cc1,1040
13,COc1ccccc1NC(=O)Cn1cccc1-c1nnc(C2CCC2)o1,942
14,CCc1cc(N2CCN(C(=O)COc3ccccc3OC)CC2)nc2nncn12,601
15,Cc1ccc(C(=O)NCc2ccc3c(c2)ncn3C)s1,604
16,O=C(CN1C(=O)CCCc2cc(S(=O)(=O)N3CCCCCC3)ccc21)Nc1ccccc1F,953
17,COCCCNC(=O)CCc1cc2cc(OC)ccc2[nH]c1=O,611
18,Cc1nc(-c2csc(S(=O)(=O)N3CCCC(C(=O)Nc4ccccc4F)C3)c2)no1 (stereo unspecified),929
19,CCNC(=O)N1CCCC(c2cccc(C(=O)NCC3CCCCC3)c2)C1 (stereo unspecified),891
20,CCc1cccc(NC(=O)N2CCC(c3cc(N)on3)CC2)c1,751
21,Cc1ccn2cc(-c3ccc(C)c(NS(=O)(=O)c4cc(C)c(C)cc4C)c3)nc2c1,759
22,O=C(N[C@@H](Cc1c[nH]c2ccccc12)C(=O)O)c1cc2ccccc2o1,769
